Laboratory results as given in publication PMC10816272, “Comparative Structure-Based Virtual Screening Utilizing Optimized AlphaFold Model Identifies Selective HDAC11 Inhibitor” (International Journal of Molecular Sciences, 2024).

Biological target: T1, HDAC11 (Homo sapiens, UniProt Q96DB2)
T1 construct: full-length human
T1 sequence (Q96DB2 1-347): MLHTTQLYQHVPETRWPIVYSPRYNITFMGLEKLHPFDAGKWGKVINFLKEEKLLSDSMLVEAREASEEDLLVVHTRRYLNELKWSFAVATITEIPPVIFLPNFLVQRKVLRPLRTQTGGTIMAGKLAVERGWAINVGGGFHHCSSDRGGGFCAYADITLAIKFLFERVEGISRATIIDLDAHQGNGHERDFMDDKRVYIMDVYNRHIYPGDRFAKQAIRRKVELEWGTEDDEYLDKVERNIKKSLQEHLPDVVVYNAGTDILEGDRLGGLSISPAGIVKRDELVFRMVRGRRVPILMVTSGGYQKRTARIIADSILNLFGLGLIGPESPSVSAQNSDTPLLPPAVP
Experiment: biochemical
Parameters: continuous fluorescence deacylase assay with fatty acid-acylated TNFα-derived peptide substrate
Procedure: In the case of HDAC11, the full-length human was expressed and purified as described in previous work. A fluorescence-based HDAC11 assay was used. The fluorescence measurements were performed using a PerkinElmer Envision 2104 multilabel plate reader (Waltham, MA, USA) at λex = 320 nm and λem = 430 nm. The reaction mixture consisted of HDAC11 and the fatty acid-acylated peptide substrate derived from TNFα in a reaction buffer—comprising 50 mM HEPES, 2 mg/mL BSA, and 70 µM TCEP—at pH 7.4, which was adjusted with NaOH (total volume 40 μL). The reactions were incubated in black 384-well plates for 30 min (scan every 30 s) at room temperature, and the increase in relative fluorescence reflecting the product formation was monitored. Positive (HDAC11, substrate, DMSO, and buffer) and negative controls (substrate, DMSO, and vuffer) were included in every measurement.

Nc1ccccc1NC(=O)c1ccc(CNC(=O)OCc2cccnc2)cc1 [Entinostat] showed an IC50 of over 20 µM.
